Source: patent US11975105B2 (EMPROS PHARMA AB, priority 2014, dated 2024)
Where two headings read alike, the source gives them in different places.

Assays:
[1] = cited from earlier work; for additional weight loss relative to placebo: at one year
[2] = cited from earlier work; for frequency of side effects, comparative: human, in vivo
[3] = cited from earlier work
[4] = cited from earlier work; for fraction of the dose absorbed: oral administration
[5] = pH dependent degradation when solubility from a powder was investigated at 37° C.; assay type: physicochemical; conditions: FIG. 1A-B

**Q.** Which results are given for `CCCCCCCCCCCC(CC1OC(=O)[C@H]1CCCCCC)OC(=O)C(CC(C)C)NC=O` (stereo in doubt) [orlistat, (S)—((S)-1-((2S,3S)-3-Hexyl-4-oxooxetan-2-yl)tridecan-2-yl) 2-formamido-4-methylpentanoate]?
**A.** additional weight loss relative to placebo [1]: ~3%; relative weight loss ([1]; best case scenario, placebo 6%): 10%; patients complaining about GI side-effects (diarrhea, oily spottings, fecal urgency) ([2]; clinical trials): ≥ 25%; log P [3]: 8.5; solubility in water [3]: practically insoluble in water; log P ([3]; listed as Orlistat): 8.4; plasma exposure ([4]; conventional oral dosage form): < 5 ng/mL; fraction of the dose absorbed [4]: < 3%; pH dependent degradation [5]: A similar tendency

**Q.** For `CCCCCCCCCCCCCCCCOc1nc2ccc(C)cc2c(=O)o1` [cetilistat], which “frequency of side effects, comparative” value [2] is on record?
**A.** much lower frequency of side effects

**Q.** With `C[C@H]1CNCCc2ccc(Cl)cc21` [lorcaserin] as the compound, how does the “additional weight loss relative to placebo” value [1] read?
**A.** ~3%

**Q.** And the “decrease of body weight more than placebo” value ([1]; human, in vivo)?
**A.** about 3.2 kg

**Q.** And the “decrease of body weight more than placebo, of initial body weight” value ([1]; human, in vivo)?
**A.** about 3.2%

**Q.** With `OCCN1C[C@H](O)[C@@H](O)[C@H](O)[C@H]1CO` [miglitol] as the compound, how does the “fraction of the dose absorbed” value [4] read?
**A.** 100%

**Q.** With `OCC(CO)N[C@H]1C[C@](O)(CO)[C@@H](O)[C@H](O)[C@H]1O` [voglibose] as the compound, how does the “frequency of side effects, comparative” value [2] read?
**A.** lower frequency of GI side effects compared to acarbose

**Q.** What about the “fraction of the dose absorbed” value [4] of the same compound?
**A.** negligibly absorbed
